Experimental data taken from patent US20120214862A1, “MODULATION OF FACTOR 7 EXPRESSION” (ISIS Pharmaceuticals, Inc., priority 2009, published 2012).
In the oligonucleotide strings, read from the 5' end, every base follows the letter of its sugar. An asterisk marks phosphorothioate; unmarked linkages are phosphodiester. Other units and linkages are bracketed, terminal groups are in braces. A string of capitals states the bases alone. e = 2'-O-(2-methoxyethyl) (MOE); [5mC] = 5-methylcytosine; d = 2'-deoxy (DNA)

Test system: human Factor 7 mRNA
Assay: Antisense inhibition of human Factor 7 mRNA in HepB3 cells, lipofectin, 50 nM, real-time RT-PCR
Format: cell-based
Conditions: HepB3 cells; for % Inhibition (human Factor 7 mRNA): Example 4, lipofectin, 50 nM, ~24 h, relative to untreated control
Outline: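 Percent inhibition, untreated cells as reference: derived from RNA collected about 24 hours post-transfection of 4,000-cell wells, with the human RTS 2927 primer probe set and adjustment for total RNA content (RIBOGREEN®).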

[1] = gapmers (5-10-5, 3-14-3, 2-13-5 MOE) targeted to nucleobases 4868 to 4899 of SEQ ID NO: 1
[2] = gapmers targeted to nucleobases 15188 to 15211 of SEQ ID NO: 1 (Table 13)
[3] = gapmers targeted to nucleobases 11830 to 11869 of SEQ ID NO: 1 (Table 9)
[4] = gapmers targeted to nucleobases 13760 to 13789 of SEQ ID NO: 1 (Table 10)

In the case of “422138 (antisense eT*e[5mC]*eT*eG*e[5mC]*dA*dG*dG*dA*dG*d[5mC]*dG*dG*d[5mC]*d[5mC]*eT*eA*eA*eA*eT) [compound 422138]”, the “% Inhibition of human Factor 7 mRNA levels” value [1] is reported as 70%.
In the case of “422139 (antisense eT*eT*e[5mC]*eT*eG*d[5mC]*dA*dG*dG*dA*dG*d[5mC]*dG*dG*d[5mC]*e[5mC]*eT*eA*eA*eA) [compound 422139]”, the “% Inhibition of human Factor 7 mRNA levels” value [1] is reported as 66%.
“422141 (antisense eA*eG*eT*eT*e[5mC]*dT*dG*d[5mC]*dA*dG*dG*dA*dG*d[5mC]*dG*eG*e[5mC]*e[5mC]*eT*eA) [compound 422141]” was tested, and the “% Inhibition of human Factor 7 mRNA levels” value [1] was 64%.
“422143 (antisense e[5mC]*e[5mC]*eG*eA*eG*dT*dT*d[5mC]*dT*dG*d[5mC]*dA*dG*dG*dA*eG*e[5mC]*eG*eG*e[5mC]) [compound 422143]” was tested, and the “% Inhibition of human Factor 7 mRNA levels” value [1] was 70%.
For “422144 (antisense e[5mC]*e[5mC]*e[5mC]*eG*eA*dG*dT*dT*d[5mC]*dT*dG*d[5mC]*dA*dG*dG*eA*eG*e[5mC]*eG*eG) [compound 422144]”, the “% Inhibition of human Factor 7 mRNA levels” value [1] was 58%.
For “422145 (antisense eG*e[5mC]*e[5mC]*e[5mC]*eG*dA*dG*dT*dT*d[5mC]*dT*dG*d[5mC]*dA*dG*eG*eA*eG*e[5mC]*eG) [compound 422145]”, the “% Inhibition of human Factor 7 mRNA levels” value [1] was 57%.
With “422146 (antisense eA*eG*e[5mC]*e[5mC]*e[5mC]*dG*dA*dG*dT*dT*d[5mC]*dT*dG*d[5mC]*dA*eG*eG*eA*eG*e[5mC]) [compound 422146]” the “% Inhibition of human Factor 7 mRNA levels” value [1] was 58%.
For “422147 (antisense eG*eA*eG*e[5mC]*e[5mC]*d[5mC]*dG*dA*dG*dT*dT*d[5mC]*dT*dG*d[5mC]*eA*eG*eG*eA*eG) [compound 422147]”, the “% Inhibition of human Factor 7 mRNA levels” value [1] was 64%.
With “422148 (antisense eG*eG*eA*eG*e[5mC]*d[5mC]*d[5mC]*dG*dA*dG*dT*dT*d[5mC]*dT*dG*e[5mC]*eA*eG*eG*eA) [compound 422148]” the “% Inhibition of human Factor 7 mRNA levels” value [1] was 57%.
For “422149 (antisense e[5mC]*eA*eT*dG*dG*dT*dG*dA*dT*dG*d[5mC]*dT*dT*d[5mC]*dT*dG*dA*eA*eT*eT) [compound 422149]”, the “% Inhibition of human Factor 7 mRNA levels” value [2] was 61%.
For “422151 (antisense eT*eG*e[5mC]*dA*dT*dG*dG*dT*dG*dA*dT*dG*d[5mC]*dT*dT*d[5mC]*dT*eG*eA*eA) [compound 422151]”, the “% Inhibition of human Factor 7 mRNA levels” value [2] was 68%.
In the case of “422153 (antisense e[5mC]*eA*eT*dG*d[5mC]*dA*dT*dG*dG*dT*dG*dA*dT*dG*d[5mC]*dT*dT*e[5mC]*eT*eG) [compound 422153]”, the “% Inhibition of human Factor 7 mRNA levels” value [2] is reported as 67%.
“422154 (antisense eT*e[5mC]*eA*dG*dG*dG*d[5mC]*dT*dG*dG*dT*dT*dT*dT*dG*dG*dA*eG*eG*eA) [compound 422154]” was tested, and the “% Inhibition of human Factor 7 mRNA levels” value [3] was 31%.
With “422155 (antisense eG*eT*e[5mC]*dA*dG*dG*dG*d[5mC]*dT*dG*dG*dT*dT*dT*dT*dG*dG*eA*eG*eG) [compound 422155]” the “% Inhibition of human Factor 7 mRNA levels” value [3] was 34%.
In the case of “422156 (antisense eG*eG*eT*d[5mC]*dA*dG*dG*dG*d[5mC]*dT*dG*dG*dT*dT*dT*dT*dG*eG*eA*eG) [compound 422156]”, the “% Inhibition of human Factor 7 mRNA levels” value [3] is reported as 38%.
For “422157 (antisense eT*eG*eG*dT*d[5mC]*dA*dG*dG*dG*d[5mC]*dT*dG*dG*dT*dT*dT*dT*eG*eG*eA) [compound 422157]”, the “% Inhibition of human Factor 7 mRNA levels” value [3] was 49%.
“422158 (antisense eA*eT*eG*dG*dT*d[5mC]*dA*dG*dG*dG*d[5mC]*dT*dG*dG*dT*dT*dT*eT*eG*eG) [compound 422158]” was tested, and the “% Inhibition of human Factor 7 mRNA levels” value [3] was 49%.
“422159 (antisense eA*eA*eT*dG*dG*dT*d[5mC]*dA*dG*dG*dG*d[5mC]*dT*dG*dG*dT*dT*eT*eT*eG) [compound 422159]” was tested, and the “% Inhibition of human Factor 7 mRNA levels” value [3] was 45%.
“422160 (antisense e[5mC]*eA*eA*dT*dG*dG*dT*d[5mC]*dA*dG*dG*dG*d[5mC]*dT*dG*dG*dT*eT*eT*eT) [compound 422160]” was tested, and the “% Inhibition of human Factor 7 mRNA levels” value [3] was 42%.
“422161 (antisense eA*e[5mC]*eA*dA*dT*dG*dG*dT*d[5mC]*dA*dG*dG*dG*d[5mC]*dT*dG*dG*eT*eT*eT) [compound 422161]” was tested, and the “% Inhibition of human Factor 7 mRNA levels” value [3] was 53%.
For “422162 (antisense eG*eA*e[5mC]*dA*dA*dT*dG*dG*dT*d[5mC]*dA*dG*dG*dG*d[5mC]*dT*dG*eG*eT*eT) [compound 422162]”, the “% Inhibition of human Factor 7 mRNA levels” value [3] was 59%.
For “422163 (antisense eA*eG*eA*d[5mC]*dA*dA*dT*dG*dG*dT*d[5mC]*dA*dG*dG*dG*d[5mC]*dT*eG*eG*eT) [compound 422163]”, the “% Inhibition of human Factor 7 mRNA levels” value [3] was 56%.
“422164 (antisense eG*eA*eG*dA*d[5mC]*dA*dA*dT*dG*dG*dT*d[5mC]*dA*dG*dG*dG*d[5mC]*eT*eG*eG) [compound 422164]” was tested, and the “% Inhibition of human Factor 7 mRNA levels” value [3] was 64%.
With “422165 (antisense eG*eG*eA*dG*dA*d[5mC]*dA*dA*dT*dG*dG*dT*d[5mC]*dA*dG*dG*dG*e[5mC]*eT*eG) [compound 422165]” the “% Inhibition of human Factor 7 mRNA levels” value [3] was 57%.
With “422166 (antisense eA*eG*eG*dA*dG*dA*d[5mC]*dA*dA*dT*dG*dG*dT*d[5mC]*dA*dG*dG*eG*e[5mC]*eT) [compound 422166]” the “% Inhibition of human Factor 7 mRNA levels” value [3] was 63%.
In the case of “422167 (antisense eG*eA*eG*dG*dA*dG*dA*d[5mC]*dA*dA*dT*dG*dG*dT*d[5mC]*dA*dG*eG*eG*e[5mC]) [compound 422167]”, the “% Inhibition of human Factor 7 mRNA levels” value [3] is reported as 53%.
With “422168 (antisense eT*eG*eA*dG*dG*dA*dG*dA*d[5mC]*dA*dA*dT*dG*dG*dT*d[5mC]*dA*eG*eG*eG) [compound 422168]” the “% Inhibition of human Factor 7 mRNA levels” value [3] was 30%.
For “422169 (antisense e[5mC]*eT*eG*dA*dG*dG*dA*dG*dA*d[5mC]*dA*dA*dT*dG*dG*dT*d[5mC]*eA*eG*eG) [compound 422169]”, the “% Inhibition of human Factor 7 mRNA levels” value [3] was 56%.
With “422170 (antisense eG*e[5mC]*eT*dG*dA*dG*dG*dA*dG*dA*d[5mC]*dA*dA*dT*dG*dG*dT*e[5mC]*eA*eG) [compound 422170]” the “% Inhibition of human Factor 7 mRNA levels” value [3] was 28%.
With “422171 (antisense eG*eG*e[5mC]*dT*dG*dA*dG*dG*dA*dG*dA*d[5mC]*dA*dA*dT*dG*dG*eT*e[5mC]*eA) [compound 422171]” the “% Inhibition of human Factor 7 mRNA levels” value [3] was 61%.
In the case of “422172 (antisense eT*eG*eG*d[5mC]*dT*dG*dA*dG*dG*dA*dG*dA*d[5mC]*dA*dA*dT*dG*eG*eT*e[5mC]) [compound 422172]”, the “% Inhibition of human Factor 7 mRNA levels” value [3] is reported as 39%.
With “422173 (antisense e[5mC]*eT*eG*dG*d[5mC]*dT*dG*dA*dG*dG*dA*dG*dA*d[5mC]*dA*dA*dT*eG*eG*eT) [compound 422173]” the “% Inhibition of human Factor 7 mRNA levels” value [3] was 51%.
For “422174 (antisense eG*e[5mC]*eT*dG*dG*d[5mC]*dT*dG*dA*dG*dG*dA*dG*dA*d[5mC]*dA*dA*eT*eG*eG) [compound 422174]”, the “% Inhibition of human Factor 7 mRNA levels” value [3] was 55%.
“422175 (antisense e[5mC]*eG*e[5mC]*d[5mC]*dG*dG*d[5mC]*dT*d[5mC]*dT*dG*d[5mC]*dT*d[5mC]*dA*dT*d[5mC]*e[5mC]*e[5mC]*e[5mC]) [compound 422175]” was tested, and the “% Inhibition of human Factor 7 mRNA levels” value [4] was 69%.
“422176 (antisense e[5mC]*e[5mC]*eG*d[5mC]*d[5mC]*dG*dG*d[5mC]*dT*d[5mC]*dT*dG*d[5mC]*dT*d[5mC]*dA*dT*e[5mC]*e[5mC]*e[5mC]) [compound 422176]” was tested, and the “% Inhibition of human Factor 7 mRNA levels” value [4] was 52%.
With “422178 (antisense eA*e[5mC]*e[5mC]*d[5mC]*dG*d[5mC]*d[5mC]*dG*dG*d[5mC]*dT*d[5mC]*dT*dG*d[5mC]*dT*d[5mC]*eA*eT*e[5mC]) [compound 422178]” the “% Inhibition of human Factor 7 mRNA levels” value [4] was 37%.
With “422179 (antisense e[5mC]*eA*e[5mC]*d[5mC]*d[5mC]*dG*d[5mC]*d[5mC]*dG*dG*d[5mC]*dT*d[5mC]*dT*dG*d[5mC]*dT*e[5mC]*eA*eT) [compound 422179]” the “% Inhibition of human Factor 7 mRNA levels” value [4] was 43%.
With “422180 (antisense e[5mC]*e[5mC]*eA*d[5mC]*d[5mC]*d[5mC]*dG*d[5mC]*d[5mC]*dG*dG*d[5mC]*dT*d[5mC]*dT*dG*d[5mC]*eT*e[5mC]*eA) [compound 422180]” the “% Inhibition of human Factor 7 mRNA levels” value [4] was 54%.
“422181 (antisense eG*e[5mC]*e[5mC]*dA*d[5mC]*d[5mC]*d[5mC]*dG*d[5mC]*d[5mC]*dG*dG*d[5mC]*dT*d[5mC]*dT*dG*e[5mC]*eT*e[5mC]) [compound 422181]” was tested, and the “% Inhibition of human Factor 7 mRNA levels” value [4] was 66%.
In the case of “422182 (antisense e[5mC]*eG*e[5mC]*d[5mC]*dA*d[5mC]*d[5mC]*d[5mC]*dG*d[5mC]*d[5mC]*dG*dG*d[5mC]*dT*d[5mC]*dT*eG*e[5mC]*eT) [compound 422182]”, the “% Inhibition of human Factor 7 mRNA levels” value [4] is reported as 11%.
With “422184 (antisense eT*eG*e[5mC]*dG*d[5mC]*d[5mC]*dA*d[5mC]*d[5mC]*d[5mC]*dG*d[5mC]*d[5mC]*dG*dG*d[5mC]*dT*e[5mC]*eT*eG) [compound 422184]” the “% Inhibition of human Factor 7 mRNA levels” value [4] was 55%.
“422185 (antisense e[5mC]*eT*eG*d[5mC]*dG*d[5mC]*d[5mC]*dA*d[5mC]*d[5mC]*d[5mC]*dG*d[5mC]*d[5mC]*dG*dG*d[5mC]*eT*e[5mC]*eT) [compound 422185]” was tested, and the “% Inhibition of human Factor 7 mRNA levels” value [4] was 48%.
For “422186 (antisense eG*eG*eA*dA*dG*dA*dA*dG*dG*dG*dA*d[5mC]*dG*dG*dA*dA*dG*eG*eT*eG) [compound 422186]”, the “% Inhibition (human Factor 7 mRNA)” value was 14%.
“422187 (antisense e[5mC]*eG*eG*dA*dA*dG*dA*dA*dG*dG*dG*dA*d[5mC]*dG*dG*dA*dA*eG*eG*eT) [compound 422187]” was tested, and the “% Inhibition (human Factor 7 mRNA)” value was 28%.
In the case of “422188 (antisense eG*e[5mC]*eG*dG*dA*dA*dG*dA*dA*dG*dG*dG*dA*d[5mC]*dG*dG*dA*eA*eG*eG) [compound 422188]”, the “% Inhibition (human Factor 7 mRNA)” value is reported as 37%.
